What all share (format): functional
In one assay the test system is Escherichia coli. Nature of the assay: Antimicrobial activity against Escherichia coli MTCC 443 after 24 hr by serial broth dilution method. The conditions noted are these: MTCC 443, 24 h. On the technique in general: Broth dilution looks for growth in wells or tubes with falling amounts of substance.
The subject of the next assay is Staphylococcus aureus. Nature of the assay: Antimicrobial activity against Staphylococcus aureus MTCC 96 after 24 hr by serial broth dilution method. To be noted: MTCC 96, 24 h.
The subject of the next assay is Pseudomonas aeruginosa. Nature of the assay: Antimicrobial activity against Pseudomonas aeruginosa MTCC 1688 after 24 hr by serial broth dilution method. The conditions noted are these: MTCC 1688, 24 h.
The next assay deals with Streptococcus pyogenes. Nature of the assay: Antimicrobial activity against Streptococcus pyogenes MTCC 442 after 24 hr by serial broth dilution method. To be noted: MTCC 442, 24 h.
The test system of the next assay is Candida albicans. Nature of the assay: Antimicrobial activity against Candida albicans MTCC 227 after 72 hr by serial broth dilution method. The conditions noted are these: MTCC 227, 72 h.
A further assay relates to Aspergillus clavatus. Nature of the assay: Antimicrobial activity against Aspergillus clavatus MTCC 1323 after 72 hr by serial broth dilution method. To be noted: MTCC 1323, 72 h.
The subject of the next assay is Aspergillus niger. Nature of the assay: Antimicrobial activity against Aspergillus niger MTCC 282 after 72 hr by serial broth dilution method. To be noted: MTCC 282, 72 h.

Consider 18 molecules from ChEMBL document CHEMBL3045303, “An efficient, solvent-free microwave-assisted synthesis and antimicrobial screening of 1,6-dihydropyrimidine analogues” (2012).

Converted amounts (≈) assume the structure as drawn.

A word on the MIC: it is the lowest concentration found to suppress growth. Read a high MIC as a need for much substance. As for `N#CCCCSC1=NC(c2ccc(N)cc2)=CC(c2ccccc2)N1` (configuration not stated), the MIC against Escherichia coli came to 500 µg/mL (≈ 1430 µM); with Staphylococcus aureus it was 500 µg/mL (≈ 1430 µM); against Pseudomonas aeruginosa it was 50 µg/mL (≈ 143 µM); in the assay with Streptococcus pyogenes it was 1000 µg/mL (≈ 2870 µM); against Candida albicans, 1000 µg/mL (≈ 2870 µM); against Aspergillus clavatus it was 1000 µg/mL (≈ 2870 µM). This molecule displayed an MIC against Aspergillus niger of 100 µg/mL (≈ 287 µM).
Take `Cc1cccc(C2C=C(c3ccc(N)cc3)N=C(SCCCC#N)N2)c1` (configuration not stated): the MIC worked out at 1000 µg/mL (≈ 2760 µM) in the assay with Escherichia coli; 1000 µg/mL (≈ 2760 µM) in the assay with Staphylococcus aureus; 500 µg/mL (≈ 1380 µM) in the assay with Pseudomonas aeruginosa; 500 µg/mL (≈ 1380 µM) against Streptococcus pyogenes; 1000 µg/mL (≈ 2760 µM) in the assay on Candida albicans; 1000 µg/mL (≈ 2760 µM) with Aspergillus clavatus. Also, in the assay on Aspergillus niger, 500 µg/mL (≈ 1380 µM) was the least that counted as inhibitory (MIC).
Turning to `N#CCCCSC1=NC(c2ccc(N)cc2)=CC(c2ccc([N+](=O)[O-])cc2)N1` (configuration not stated), the MIC with Escherichia coli was determined as 500 µg/mL (≈ 1270 µM); against Staphylococcus aureus, 500 µg/mL (≈ 1270 µM); with Pseudomonas aeruginosa, 100 µg/mL (≈ 254 µM); against Streptococcus pyogenes, 500 µg/mL (≈ 1270 µM); against Candida albicans it was 500 µg/mL (≈ 1270 µM); in the assay on Aspergillus clavatus, 200 µg/mL (≈ 508 µM). Moreover, the minimum inhibitory concentration (MIC) in the assay with Aspergillus niger came out at 50 µg/mL (≈ 127 µM).
In the assay with Pseudomonas aeruginosa, `Nc1ccc(C2=CC(c3ccccc3)NC(S)=N2)cc1` (configuration not stated) returned an MIC of 250 µg/mL (≈ 888 µM).
Regarding `COC1=CC(=O)C[C@@H](C)[C@]12Oc1c(Cl)c(OC)cc(OC)c1C2=O` [GRISEOFULVIN], the MIC against Candida albicans amounted to 500 µg/mL (≈ 1420 µM); with Aspergillus clavatus, 100 µg/mL (≈ 283 µM); in the assay on Aspergillus niger it was 100 µg/mL (≈ 283 µM).
Turning to `Cc1ccccc1C1C=C(c2ccc(N)cc2)N=C(SCCCC#N)N1` (configuration not stated), the MIC against Escherichia coli stood at 500 µg/mL (≈ 1380 µM); against Staphylococcus aureus, 1000 µg/mL (≈ 2760 µM); against Pseudomonas aeruginosa, 250 µg/mL (≈ 690 µM); in the assay on Streptococcus pyogenes, 1000 µg/mL (≈ 2760 µM); with Candida albicans, 1000 µg/mL (≈ 2760 µM); against Aspergillus clavatus, 1000 µg/mL (≈ 2760 µM). Besides, the MIC in the assay with Aspergillus niger turned out to be 500 µg/mL (≈ 1380 µM).
Regarding `Cc1ccc(C2C=C(c3ccc(N)cc3)N=C(SCCCC#N)N2)cc1` (configuration not stated), the MIC is 100 µg/mL (≈ 276 µM) in the assay with Escherichia coli; 50 µg/mL (≈ 138 µM) against Staphylococcus aureus; 500 µg/mL (≈ 1380 µM) in the assay on Pseudomonas aeruginosa; 500 µg/mL (≈ 1380 µM) against Streptococcus pyogenes; 1000 µg/mL (≈ 2760 µM) in the assay with Candida albicans; 100 µg/mL (≈ 276 µM) in the assay with Aspergillus clavatus. In the assay with Aspergillus niger, this molecule returned an MIC of 50 µg/mL (≈ 138 µM).
On to `N#CCCCSC1=NC(c2ccc(N)cc2)=CC(c2ccccc2O)N1` (configuration not stated), for which the MIC in the assay with Escherichia coli amounted to 50 µg/mL (≈ 137 µM); against Staphylococcus aureus, 250 µg/mL (≈ 686 µM); in the assay with Pseudomonas aeruginosa it was 250 µg/mL (≈ 686 µM); in the assay on Streptococcus pyogenes, 100 µg/mL (≈ 274 µM); in the assay with Candida albicans, 200 µg/mL (≈ 549 µM); in the assay with Aspergillus clavatus it was 500 µg/mL (≈ 1370 µM). For the same molecule, in the assay on Aspergillus niger, the MIC came to 100 µg/mL (≈ 274 µM).
For `COc1cc(C2C=C(c3ccc(N)cc3)N=C(SCCCC#N)N2)ccc1O` (configuration not stated), the MIC in the assay on Escherichia coli was 25 µg/mL (≈ 63.4 µM); against Staphylococcus aureus, 250 µg/mL (≈ 634 µM); in the assay on Pseudomonas aeruginosa, 100 µg/mL (≈ 253 µM); in the assay on Streptococcus pyogenes it was 100 µg/mL (≈ 253 µM); in the assay on Candida albicans, 100 µg/mL (≈ 253 µM); against Aspergillus clavatus, 100 µg/mL (≈ 253 µM). In addition, it took 100 µg/mL (≈ 253 µM) to inhibit growth with Aspergillus niger (MIC).
In turn, `COc1ccc(C2C=C(c3ccc(N)cc3)N=C(S)N2)cc1` (configuration not stated) gave an MIC in the assay on Pseudomonas aeruginosa of 250 µg/mL (≈ 803 µM).
Take `COc1cc(C2C=C(c3ccc(N)cc3)N=C(S)N2)ccc1O` (configuration not stated): the MIC against Escherichia coli and against Streptococcus pyogenes was 250 µg/mL (≈ 764 µM) in each case.
On to `N#CCCCSC1=NC(c2ccc(N)cc2)=CC(c2cccc(O)c2)N1` (configuration not stated), for which the MIC against Escherichia coli was found to be 500 µg/mL (≈ 1370 µM); in the assay on Staphylococcus aureus, 250 µg/mL (≈ 686 µM); with Pseudomonas aeruginosa, 500 µg/mL (≈ 1370 µM); in the assay with Streptococcus pyogenes, 200 µg/mL (≈ 549 µM); against Candida albicans, 50 µg/mL (≈ 137 µM); against Aspergillus clavatus, 500 µg/mL (≈ 1370 µM). Moreover, in the assay on Aspergillus niger, the MIC was found to be 500 µg/mL (≈ 1370 µM).
Turning to `CN(C)c1ccc(C2C=C(c3ccc(N)cc3)N=C(SCCCC#N)N2)cc1` (configuration not stated), the MIC was 500 µg/mL (≈ 1280 µM) in the assay on Escherichia coli; 250 µg/mL (≈ 638 µM) with Staphylococcus aureus; 250 µg/mL (≈ 638 µM) in the assay on Pseudomonas aeruginosa; 1000 µg/mL (≈ 2550 µM) in the assay on Streptococcus pyogenes; 1000 µg/mL (≈ 2550 µM) in the assay with Candida albicans; 1000 µg/mL (≈ 2550 µM) against Aspergillus clavatus. For the same molecule, the lowest concentration to inhibit growth against Aspergillus niger (MIC) was 500 µg/mL (≈ 1280 µM).
With `CC1(C)S[C@@H]2[C@H](NC(=O)[C@H](N)c3ccccc3)C(=O)N2[C@H]1C(=O)O` [AMPICILLIN], the MIC is 100 µg/mL (≈ 286 µM) with Escherichia coli, 250 µg/mL (≈ 715 µM) in the assay on Staphylococcus aureus, 100 µg/mL (≈ 286 µM) against Pseudomonas aeruginosa and 100 µg/mL (≈ 286 µM) against Streptococcus pyogenes.
In the case of `N#CCCCSC1=NC(c2ccc(N)cc2)=CC(c2ccc(Cl)cc2)N1` (configuration not stated), the MIC is 100 µg/mL (≈ 261 µM) against Escherichia coli; 500 µg/mL (≈ 1310 µM) against Staphylococcus aureus; 100 µg/mL (≈ 261 µM) with Pseudomonas aeruginosa; 100 µg/mL (≈ 261 µM) with Streptococcus pyogenes; 1000 µg/mL (≈ 2610 µM) in the assay on Candida albicans; 100 µg/mL (≈ 261 µM) with Aspergillus clavatus. Moreover, the MIC against Aspergillus niger turned out to be 500 µg/mL (≈ 1310 µM).
For the molecule `COc1ccc(C2C=C(c3ccc(N)cc3)N=C(SCCCC#N)N2)cc1` (configuration not stated), the MIC in the assay with Escherichia coli came out at 100 µg/mL (≈ 264 µM); against Staphylococcus aureus, 100 µg/mL (≈ 264 µM); against Pseudomonas aeruginosa it was 25 µg/mL (≈ 66.1 µM); in the assay with Streptococcus pyogenes it was 500 µg/mL (≈ 1320 µM); against Candida albicans, 500 µg/mL (≈ 1320 µM); against Aspergillus clavatus, 50 µg/mL (≈ 132 µM). In addition, in the assay with Aspergillus niger, the MIC came out at 200 µg/mL (≈ 528 µM).
With `N#CCCCSC1=NC(c2ccc(N)cc2)=CC(c2ccc(O)cc2)N1` (configuration not stated), the MIC in the assay on Escherichia coli turned out to be 25 µg/mL (≈ 68.6 µM); against Staphylococcus aureus, 500 µg/mL (≈ 1370 µM); against Pseudomonas aeruginosa, 1000 µg/mL (≈ 2740 µM); against Streptococcus pyogenes, 50 µg/mL (≈ 137 µM); in the assay with Candida albicans, 500 µg/mL (≈ 1370 µM); against Aspergillus clavatus, 200 µg/mL (≈ 549 µM). This molecule gave an MIC with Aspergillus niger of 500 µg/mL (≈ 1370 µM).
As to `Nc1ccc(C2=CC(c3ccc(O)cc3)NC(S)=N2)cc1` (configuration not stated), the MIC against Escherichia coli and against Streptococcus pyogenes was 250 µg/mL (≈ 841 µM) throughout.
